Results on 29 compounds are retold here after patent publication US20230219898A1, “COMPOUNDS AND METHODS FOR BLOCKING APOPTOSIS AND INDUCING AUTOPHAGY” (President and Fellows of Harvard College, priority 2020, published 2023).

Read-outs that look alike come from different tables or passages of the source. Where a SMILES comes first, the peptide text is derived from it. The star is where a group is joined. Cbz = O=C(OCc1ccccc1)*; CH2F = FC*

Experiment [1] has as its system Human Jurkat cells. In words: Velcade-induced apoptosis of Jurkat cells, CellTiter-Glo viability. Type of experiment: cell-based. Conditions: 24 hours. On the procedure: Human Jurkat cells were seeded in 96-well plates (20000 cells per well). Different concentrations of the compounds were added one hour prior to Velcade treatment, followed by the addition of 50 nM Velcade. After incubation for 24 hours, cell viability was measured by CellTiter-Glo Luminescent Cell Viability Assay.
(§1) The rates of cell death were measured in triplicate or quadruplicate in a 96-well or 384-well plate by using SYTOX Green Nucleic Acid Stain (Invitrogen) or ToxiLight Non-destructive Cytotoxicity BioAssay Kit (Lonza). The intensity of luminescence was determined in an EnSpire Multimode Plate Reader (PerkinElmer). Cytotoxicity is expressed as percentages of cell death per well after deducting the background signal in non-induced cells and compared to that of the maximal cell death with 100% Lysis Reagent. The rates of cell viability were determined by using CellTiter-Glo Luminescent Cell Viability Assay (Promega) following the manufacturer's protocol and the results are expressed as percentages of luminescence intensity per well after deducting the background signal in blank well and compared to that of the viability in the non-treated wells. Concentration of drugs used for inducing or inhibiting cell death, mTNFα: 1 ng/ml; 5Z-7-Oxozeaenol: 0.5 μM; Velcade: 50 nM; Apt-1/ICCB-19/ICCB-19i/Nec-1s: 10 μM.

In experiment [2] the test system is Murine RGC5(661W) cells. In words: RIPK1-dependent apoptosis (RDA) of RGC5 cells induced by TNFα plus 5Z-7-Oxozeaenol. The settings on record: Mus musculus, 21 hours. Type of experiment: cell-based. Here is the method:
Murine RGC5(661W) cells were seeded in 96-well plates (4000 cells per well). Different concentrations of the compounds were added one hour prior to TNFα treatment, followed by the addition of 0.5 ng/ml TNFα plus 0.5 μM 5Z-7-Oxozeaenol to induce RIPK1-dependent apoptosis (RDA). After incubation for 21 hours, cell viability was measured by CellTiter-Glo Luminescent Cell Viability Assay.

For experiment [3], the system named is H4 cells. Put plainly: Autophagy by LC3II western blotting in H4 cells (FIG. 21). It counts as cell-based. Conditions: 10 uM, 1 h pretreatment, 6 h vehicle or 40 mM NH4Cl. Here is the method: (§2) Wild-type H4 and MEF cells that were pretreated for 1 h with 10 uM of the specified compounds, followed by 6 h treatment with either vehicle or 40 mM NH4Cl. Cell lysates were prepared and immunoblotted for LC3-I and LC3-II. Autophagy was determined by LC3II levels using western blotting.
(In general: Immunoblotting shows a protein as a band on a membrane.)

Experiment [4] has as its system MEF cells. In words: Autophagy by LC3II western blotting in MEF cells (FIG. 21). It counts as cell-based, mouse. Conditions: 10 uM, 1 h pretreatment, 6 h vehicle or 40 mM NH4Cl. On the procedure: as §2
The subject of experiment [5] is cleaved-caspase 3 (CC3) in MEF cells. In words: Cleaved caspase 3 immunoblot in MEF cells treated with 5z-7-oxozeaenol and TNFα (FIG. 22). Conditions: 10 uM; 2 h 0.5 uM 5z-7-oxozeaenol and 1 ng/mL TNFα. Type of experiment: cell-based, mouse. On the procedure:
(§3) Specifically, wild-type MEF cells were pretreated for 1 h with 10 uM of the specified compounds, followed by 2 h treatment with 0.5 uM 5z-7-oxozeaenol and 1 ng/mL TNFα. Cell lysates were prepared and immunoblotted for cleaved-caspase 3 (CC3). Wild-type Jurkat cells were also pretreated for 1 h with 10 uM of the specified compounds, followed by 12 h treatment with 50 nM Velcade. Cell lysates were prepared and immunoblotted for cleaved-caspase 3 (CC3).

In experiment [6] the test system is cleaved caspase-3 in Jurkat cells. Put plainly: Cleaved caspase-3 immunoblot in Velcade-treated cells. It counts as cell-based, human. Conditions: 10 uM; 12 h 50 nM Velcade. On the procedure: The levels of cleaved caspase-3 were determined by immunoblotting.
as §3

In experiment [7] the test system is MEFs. Put plainly: RDA in MEFs induced by mTNFα and 5Z-7-Oxozeaenol, cell survival. Conditions: 10 μM. It counts as cell-based, mouse. On the procedure: as §1
For experiment [8], the system named is H4-GFP-LC3 cells. Put plainly: Autophagy induction, GFP-LC3 puncta and LC3II immunoblotting. It counts as cell-based. The settings on record: 10 μM, 6 h (zVAD.fmk 20 μM). On the procedure: Mean ±s.e.m. (n=5). One-way ANOVA, post hoc Dunnett's test.
Autophagy was determined by LC3II levels using immunoblotting. SE=shorter exposure, LE=longer exposure.
Autophagy was measured by LC3II induction and p62 reduction by immunoblotting. The levels of LC3II in cells treated with both Apt-1 and NH4Cl, the latter of which inhibits lysosome, were higher than that treated with either Apt-1 or NH4Cl alone. Thus, ICCB-19/Apt-1, but not ICCB-19i, induce autophagic flux. Mean ±s.e.m. from technical triplicates (n=3), representative of 3 independent experiments. Two-tailed t-test. **P=0.0037.
Levels of LC3II determined by immunoblotting.
Cells were seeded at 2.5×10^4 cells per well on poly-L-lysine coated glass cover slips and transfected as described. Cells were fixed in 4% paraformaldehyde, followed by permeabilization with 0.1% Triton X-100. Nuclei were stained using DAPI (Sigma). Cells expressing GFP or RFP-fusion proteins were imaged with an Olympus Fluoview FV1000 confocal microscope (Olympus) using a 40×objective. For GFP-LC3 and DsRed-FYVE puncta quantification, the average spot intensity in 1000 cells from each indicated sample was determined. Images were processed using ImageJ and Photoshop CC. Concentration of compounds used to induce or block autophagy: 10 μM (Apt-1, ICCB-19, ICCB-19i or Spautin-1), for 6 h or as indicated.

[9] abbreviates: Table 3, 50 nM Velcade, read-out: Jurkat Velcade IC50/μM.
Setting [10] is: Table 3, 0.5 ng/ml TNFα plus 0.5 μM 5Z-7-Oxozeaenol, read-out: RGC5 T/5z7 IC50/μM.
The mark [11] stands for this setting: Table 1, 50 nM Velcade, read-out: Apoptosis of Jurkat cells induced by Velcade (IC50 μM).
The mark [12] stands for this setting: Table 2, 0.5 ng/ml TNFα plus 0.5 μM 5Z-7-Oxozeaenol, read-out: RGC5 T/5z7 IC50.

Take `CC(SC1=NCCN1C)C(=O)NC1CCCCCC1` (stereo not drawn) [Compound 27]: the IC50 came out at 3.06 µM in experiment [1] (setting [9]) and 2.81 µM in experiment [2] (setting [10]).
Take `Cc1ccccc1NC(=O)CSC1=NCCN1` [Compound 3]: the IC50 in experiment [1] (setting [11]) was determined as 32.1 µM.
For `CN1CCN=C1SC(C(=O)NC(c1ccccc1)c1ccccc1)c1ccccc1` (stereo not drawn) [Compound 42], the IC50 in experiment [1] (setting [9]) was determined as 1.15 µM; in experiment [2] (setting [10]), 1.57 µM.
As for `FC(F)=C(F)CCSC1=NCCN1` [Compound 8], in experiment [1] (setting [11]), the IC50 came out at 17.3 µM.
On to `CCN1CCN=C1SC(C(=O)NC1CCCCCC1)c1ccccc1` (stereo not drawn) [Compound 36], for which the results for the IC50 in experiment [1] (setting [9]) and in experiment [2] (setting [10]) were 1.07 µM and 1.79 µM, respectively.
Consider `CN(C(=O)CSC1=NCCN1)C1CCCCCC1` [Compound 16], for which the IC50 in experiment [1] (setting [9]) stood at 1.46 µM; in experiment [2] (setting [10]), 8.84 µM.
Consider `C/N=C(\NC)NCC(=O)N1CCCC1` [Compound 38], for which the “autophagy (LC3II levels) in H4 cells” value in experiment [3] was “induce autophagy”. For the same compound, the “autophagy (LC3II levels) in MEF cells” value in experiment [4] was “induce autophagy”. The “cleaved caspase 3 in MEF cells” value in experiment [5] is recorded as “block cleaved caspase 3”. In addition, in experiment [6], the “cleaved caspase 3 in Jurkat cells” value is on record as “block cleaved caspase 3”.
With `N=C(N)SCc1ccccc1F` [Compound 1], the IC50 in experiment [1] (setting [11]) was 6.2 µM.
As for `CN1C(=O)NC(Cc2c[nH]c3c(Cl)cccc23)C1=O` (stereo not drawn) [Nec-1s, reference compound], the “protection against RDA models” value in experiment [7] was “protected against multiple RDA models”.
For `COc1ccc(NC(=O)CSC2=NCCN2)cc1` [Compound 5], the IC50 in experiment [1] (setting [11]) is 46.4 µM.
For the compound `CN1CCN=C1SC(C(=O)NC1CCCCCC1)c1ccccc1Cl` (stereo not drawn) [Compound 34], the IC50 in experiment [1] (setting [9]) was found to be 0.882 µM; in experiment [2] (setting [10]), 2.21 µM.
Take `N#Cc1ccc(CSC(=N)N)cc1` [Compound 7]: the IC50 in experiment [1] (setting [11]) is 6.84 µM.
Still for that read-out and setting: to `COc1ccc(CSC(=N)N)cc1[N+](=O)[O-]` [Compound 2] belongs 4.4 µM.
For the compound `Fc1ccccc1CSC1=NCCN1` [Compound 40], the IC50 in experiment [1] (setting [9]) is 3.23 µM; in experiment [2] (setting [10]), 5.87 µM. For the same compound, the “autophagy (LC3II levels) in H4 cells” value in experiment [3] is reported as “induce autophagy”. Moreover, the “autophagy (LC3II levels) in MEF cells” value in experiment [4] is given as “induce autophagy”. Further, the “cleaved caspase 3 in MEF cells” value in experiment [5] is given as “block cleaved caspase 3”. In experiment [6], the “cleaved caspase 3 in Jurkat cells” value is given as “block cleaved caspase 3”.
With `CN1CCN=C1SC(C)(C)C(=O)NC1CCCCCC1` [Compound 33], the IC50 in experiment [1] (setting [9]) stood at 1.04 µM; in experiment [2] (setting [10]), 1.67 µM.
`CC(SC1=NCCN1)C(=O)NC1CCCCCC1` (stereo not drawn) [Compound 18]: the IC50 in experiment [1] (setting [9]) was found to be 3.66 µM; in experiment [2] (setting [10]), 4.02 µM.
For `O=C(CSC1=NCCN1)NC1CCC1` [Compound 14], in experiment [2] (setting [12]), the IC50 was determined as 4.51 µM.
On to `CN1CCN=C1SCC(=O)NC1CCCCCC1` [Compound 19], for which the IC50 in experiment [1] (setting [9]) came to 1.8 µM; in experiment [2] (setting [10]) it was 3.33 µM.
In the case of `CC(SC1=NCCN1C)C(=O)N(C)C1CCCCCC1` (stereo not drawn) [Compound 28], the results for the IC50 in experiment [1] (setting [9]) and in experiment [2] (setting [10]) were 0.953 µM and 2.93 µM, respectively.
With `COC(=O)C[C@H](NC(=O)[C@H](C)NC(=O)[C@@H](NC(=O)OCc1ccccc1)C(C)C)C(=O)CF` [zVAD.fmk, reference compound] (Cbz-Val-Ala-Asp(OMe)-CH2F), the induction of autophagy result in experiment [8] is listed as “no effect on autophagy”.
With `CN1CCN=C1SC(C(=O)NC1CCCCCC1)c1ccc(Cl)cc1` (stereo not drawn) [Compound 35], the IC50 in experiment [1] (setting [9]) stood at 2.14 µM; in experiment [2] (setting [10]), 1.6 µM.
Taken in the same sequence, the figures for `CN1CCN=C1SCC(=O)N(C)C1CCCCCC1` [Compound 26] were 1.99 µM and 3.08 µM.
Turning to `Cc1ccc(NC(=O)CSC2=NCCN2)cc1` [Compound 4], the IC50 in experiment [1] (setting [11]) amounted to 10.5 µM.
For `O=C(CSC1=NCCN1)NC(c1ccccc1)c1ccccc1` [Compound 37], the IC50 was found to be 1.17 µM in experiment [1] (setting [9]) and 3.05 µM in experiment [2] (setting [10]).
Regarding `CC(C)C(SC1=NCCN1C)C(=O)NC1CCCCCC1` (stereo not drawn) [Compound 29], the IC50 in experiment [1] (setting [9]) is 3.87 µM; in experiment [2] (setting [10]) it was 1.83 µM.
For the compound `O=C(CSC1=NCCN1)NC1CCCCC1` [Compound 12], the IC50 in experiment [2] (setting [12]) worked out at 2.36 µM.
On the same count and under the same terms, the figure for `O=C(CSC1=NCCN1)NC1CCCC1` [Compound 13] is 3.42 µM.
With `O=C(CSC1=NCCN1)N1CCc2ccccc21` [ICCB-17], the IC50 in experiment [1] (setting [11]) stood at 13.4 µM.
Turning to `CC(SC1=NCCN1)C(=O)N(C)C1CCCCCC1` (stereo not drawn) [Compound 25], the figures for the IC50 in experiment [1] (setting [9]) and in experiment [2] (setting [10]) were 1.22 µM and 2.87 µM, respectively.
